Data taken from ChEMBL document CHEMBL3779859, “Synergistic activity of a short lipidated antimicrobial peptide (lipoAMP) and colistin or tobramycin against Pseudomonas aeruginosa from cystic fibrosis patients” (Medchemcomm, 2016).
In brackets after ≈: the same amount, converted by molar mass. Activity calls are given as the source filed them. The rule behind the calls is not given here. Peptide text beside a SMILES is read from it. * marks the point of attachment. DEAC = CCN(CC)c1ccc2cc(C(=O)*)c(=O)oc2c1; Myristoyl = CCCCCCCCCCCCCC(=O)*; Lauroyl = CCCCCCCCCCCC(=O)*; Hexanoyl = CCCCCC(=O)*

How the values were obtained:
Pseudomonas aeruginosa [1] = experiment: Antibacterial activity against Pseudomonas aeruginosa KD491 clinical isolate after 16 to 20 hrs by microdilution assay; assay type: functional
Pseudomonas aeruginosa [2] = experiment: Antibacterial activity against Pseudomonas aeruginosa VW1633 clinical isolate after 16 to 20 hrs by microdilution assay; assay type: functional
Pseudomonas aeruginosa [3] = experiment: Antibacterial activity against Pseudomonas aeruginosa LES431 clinical isolate after 16 to 20 hrs by microdilution assay; assay type: functional
Pseudomonas aeruginosa [4] = experiment: Antibacterial activity against Pseudomonas aeruginosa LES400 clinical isolate after 16 to 20 hrs by microdilution assay; assay type: functional
Pseudomonas aeruginosa [5] = experiment: Antibacterial activity against Pseudomonas aeruginosa kl 1.1 clinical isolate after 16 to 20 hrs by microdilution assay; assay type: functional
Pseudomonas aeruginosa [6] = experiment: Antibacterial activity against Pseudomonas aeruginosa VW1501 clinical isolate after 16 to 20 hrs by microdilution assay; assay type: functional
Pseudomonas aeruginosa [7] = experiment: Antibacterial activity against Pseudomonas aeruginosa LESB58 clinical isolate assessed as delay in growth rate in exponential phase of bacterial growth curve at 1 ug/ml measured every 15 mins by microtiter plate reader method; assay type: functional, organism-based
Pseudomonas aeruginosa [8] = experiment: Antibacterial activity against Pseudomonas aeruginosa PAO1 clinical isolate assessed as delay in growth rate in exponential phase of bacterial growth curve at 0.25 ug/ml measured every 15 mins by microtiter plate reader method; assay type: functional, organism-based
Pseudomonas aeruginosa [9] = experiment: Antibacterial activity against Pseudomonas aeruginosa KD557 clinical isolate after 16 to 20 hrs by microdilution assay; assay type: functional
Pseudomonas aeruginosa [10] = experiment: Antibacterial activity against Pseudomonas aeruginosa PAO1 clinical isolate after 16 to 20 hrs by microdilution assay; assay type: functional
Pseudomonas aeruginosa [11] = experiment: Antibacterial activity against Pseudomonas aeruginosa KD491 clinical isolate assessed as delay in growth rate in exponential phase of bacterial growth curve at 1 ug/ml measured every 15 mins by microtiter plate reader method; assay type: functional, organism-based
Pseudomonas aeruginosa [12] = experiment: Antibacterial activity against Pseudomonas aeruginosa VW178 clinical isolate after 16 to 20 hrs by microdilution assay; assay type: functional
Pseudomonas aeruginosa [13] = experiment: Antibacterial activity against Pseudomonas aeruginosa MIDLANDS clinical isolate after 16 to 20 hrs by microdilution assay; assay type: functional
Pseudomonas aeruginosa [14] = experiment: Antibacterial activity against Pseudomonas aeruginosa VW1540 clinical isolate after 16 to 20 hrs by microdilution assay; assay type: functional
Pseudomonas aeruginosa [15] = experiment: Antibacterial activity against Pseudomonas aeruginosa VW313 clinical isolate after 16 to 20 hrs by microdilution assay; assay type: functional
Pseudomonas aeruginosa [16] = experiment: Antibacterial activity against Pseudomonas aeruginosa VW1485 clinical isolate after 16 to 20 hrs by microdilution assay; assay type: functional
Pseudomonas aeruginosa [17] = experiment: Antibacterial activity against Pseudomonas aeruginosa VW1471 clinical isolate after 16 to 20 hrs by microdilution assay; assay type: functional
Pseudomonas aeruginosa [18] = experiment: Antibacterial activity against Pseudomonas aeruginosa D599 clinical isolate after 16 to 20 hrs by microdilution assay; assay type: functional
Pseudomonas aeruginosa [19] = experiment: Antibacterial activity against Pseudomonas aeruginosa kl 3.2 clinical isolate after 16 to 20 hrs by microdilution assay; assay type: functional
Pseudomonas aeruginosa [20] = experiment: Antibacterial activity against Pseudomonas aeruginosa Clone C clinical isolate after 16 to 20 hrs by microdilution assay; assay type: functional
Pseudomonas aeruginosa [21] = experiment: Antibacterial activity against Pseudomonas aeruginosa VW0247 clinical isolate after 16 to 20 hrs by microdilution assay; assay type: functional
Pseudomonas aeruginosa [22] = experiment: Antibacterial activity against Pseudomonas aeruginosa LESB58 clinical isolate after 16 to 20 hrs by microdilution assay; assay type: functional
Pseudomonas aeruginosa [23] = experiment: Antibacterial activity against Pseudomonas aeruginosa VW1538 clinical isolate after 16 to 20 hrs by microdilution assay; assay type: functional
Pseudomonas aeruginosa [24] = experiment: Antibacterial activity against Pseudomonas aeruginosa Clone C clinical isolate assessed as delay in growth rate in exponential phase of bacterial growth curve at 0.25 ug/ml measured every 15 mins by microtiter plate reader method; assay type: functional, organism-based
Pseudomonas aeruginosa [25] = experiment: Antibacterial activity against Pseudomonas aeruginosa LESB58 clinical isolate assessed as prolongation of lag phase in bacterial growth curve at 2 ug/ml measured every 15 mins by microtiter plate reader method; assay type: functional, organism-based
Pseudomonas aeruginosa [26] = experiment: Antibacterial activity against Pseudomonas aeruginosa KD491 clinical isolate assessed as growth rate in exponential phase at 0.25 ug/ml measured every 15 mins by microtiter plate reader method; assay type: functional, organism-based
Pseudomonas aeruginosa [27] = experiment: Antibacterial activity against Pseudomonas aeruginosa LESB58 clinical isolate assessed as growth rate in exponential phase at 2 ug/ml measured every 15 mins by microtiter plate reader method; assay type: functional, organism-based
Pseudomonas aeruginosa [28] = experiment: Antibacterial activity against Pseudomonas aeruginosa PAO1 clinical isolate assessed as inhibition of biofilm formation at 2 ug/ml after 18 to 22 hrs by crystal violet staining-based polystyrene microtiter plate reader method; assay type: functional, organism-based
Pseudomonas aeruginosa [29] = experiment: Antibacterial activity against Pseudomonas aeruginosa Clone C clinical isolate assessed as inhibition of biofilm formation at 2 ug/ml after 18 to 22 hrs by crystal violet staining-based polystyrene microtiter plate reader method; assay type: functional, organism-based
Pseudomonas aeruginosa [30] = experiment: Antibacterial activity against Pseudomonas aeruginosa KD491 clinical isolate assessed as prolongation time of lag phase in bacterial growth curve at 0.25 ug/ml measured every 15 mins by microtiter plate reader method; assay type: functional, organism-based

Compound | MIC (Pseudomonas aeruginosa [1]) | MIC (Pseudomonas aeruginosa [2]) | MIC (Pseudomonas aeruginosa [3]) | MIC (Pseudomonas aeruginosa [4]) | MIC (Pseudomonas aeruginosa [5]) | MIC (Pseudomonas aeruginosa [6]) | MIC (Pseudomonas aeruginosa [9]) | MIC (Pseudomonas aeruginosa [10]) | MIC (Pseudomonas aeruginosa [12]) | MIC (Pseudomonas aeruginosa [13]) | MIC (Pseudomonas aeruginosa [14]) | MIC (Pseudomonas aeruginosa [15]) | MIC (Pseudomonas aeruginosa [16]) | MIC (Pseudomonas aeruginosa [17]) | MIC (Pseudomonas aeruginosa [18]) | MIC (Pseudomonas aeruginosa [19]) | MIC (Pseudomonas aeruginosa [20]) | MIC (Pseudomonas aeruginosa [21]) | MIC (Pseudomonas aeruginosa [22]) | MIC (Pseudomonas aeruginosa [23]) | other results
CCN(CC)c1ccc2cc(C(=O)NCCCC[C@H](NC(=O)[C@H](Cc3c[nH]c4ccccc34)NC(=O)[C@H](CCCNC(=N)N)NC(=O)[C@H](Cc3c[nH]c4ccccc34)NC(=O)[C@H](CCCNC(=N)N)NC(=O)[C@H](Cc3c[nH]c4ccccc34)NC(=O)[C@@H](N)CCCNC(=N)N)C(=O)O)c(=O)oc2c1 (H-RWRWRWK(DEAC)-OH) | 64 µg/mL (≈ 45.2 µM) | 64 µg/mL (≈ 45.2 µM) | > 128 µg/mL |  |  |  |  |  |  |  |  |  |  |  |  |  |  |  |  |  | 
NC[C@H]1O[C@H](O[C@H]2[C@H](O)[C@@H](O[C@H]3O[C@H](CO)[C@@H](O)[C@H](N)[C@H]3O)[C@H](N)C[C@@H]2N)[C@H](N)C[C@@H]1O [TOBRAMYCIN] | 8 µg/mL (≈ 17.1 µM) | 0.125 µg/mL (≈ 0.267 µM) | 2 µg/mL (≈ 4.28 µM) | 8 µg/mL (≈ 17.1 µM) | 4 µg/mL (≈ 8.56 µM) | 4 µg/mL (≈ 8.56 µM) | 1 µg/mL (≈ 2.14 µM) | 2 µg/mL (≈ 4.28 µM) | 32 µg/mL (≈ 68.4 µM) | 2 µg/mL (≈ 4.28 µM) | 0.125 µg/mL (≈ 0.267 µM) | 16 µg/mL (≈ 34.2 µM) | 16 µg/mL (≈ 34.2 µM) | 8 µg/mL (≈ 17.1 µM) | 0.5 µg/mL (≈ 1.07 µM) | 16 µg/mL (≈ 34.2 µM) | 1 µg/mL (≈ 2.14 µM) | 4 µg/mL (≈ 8.56 µM) | 8 µg/mL (≈ 17.1 µM) | 8 µg/mL (≈ 17.1 µM) | Activity (Pseudomonas aeruginosa [7]): Active; Activity (Pseudomonas aeruginosa [8]): Active; Activity (Pseudomonas aeruginosa [11]): Active; Activity (Pseudomonas aeruginosa [24]): Active
COLISTIN | 2 µg/mL | 2 µg/mL | 2 µg/mL | 4 µg/mL | 4 µg/mL | 2 µg/mL | 8 µg/mL | 4 µg/mL | 4 µg/mL | 4 µg/mL | 4 µg/mL | 4 µg/mL | > 128 µg/mL | 4 µg/mL | 4 µg/mL | 8 µg/mL | 4 µg/mL | 2 µg/mL | 32 µg/mL | 2 µg/mL | Activity (Pseudomonas aeruginosa [25]): Active; Activity (Pseudomonas aeruginosa [26]): inactive; Activity (Pseudomonas aeruginosa [27]): inactive; inhibition (Pseudomonas aeruginosa [28]): < 20%; inhibition (Pseudomonas aeruginosa [29]): < 20%; TIME (Pseudomonas aeruginosa [30]): 4 h
CCCCCC(=O)NCCCC[C@H](NC(=O)[C@H](Cc1c[nH]c2ccccc12)NC(=O)[C@H](CCCNC(=N)N)NC(=O)[C@H](Cc1c[nH]c2ccccc12)NC(=O)[C@H](CCCNC(=N)N)NC(=O)[C@H](Cc1c[nH]c2ccccc12)NC(=O)[C@@H](N)CCCNC(=N)N)C(=O)O (H-RWRWRWK(Hexanoyl)-OH) | 32 µg/mL (≈ 25.2 µM) | 16 µg/mL (≈ 12.6 µM) | > 128 µg/mL |  |  |  |  |  |  |  |  |  |  |  |  |  |  |  |  |  | 
CC(C)(O/N=C(\C(=O)N[C@@H]1C(=O)N2C(C(=O)[O-])=C(C[n+]3ccccc3)CS[C@H]12)c1csc(N)n1)C(=O)O [CEFTAZIDIME] | > 256 µg/mL | > 256 µg/mL | 256 µg/mL (≈ 468 µM) | 32 µg/mL (≈ 58.5 µM) | 2 µg/mL (≈ 3.66 µM) | 4 µg/mL (≈ 7.32 µM) | 2 µg/mL (≈ 3.66 µM) | 1 µg/mL (≈ 1.83 µM) | 2 µg/mL (≈ 3.66 µM) | 64 µg/mL (≈ 117 µM) | 16 µg/mL (≈ 29.3 µM) | > 256 µg/mL | 8 µg/mL (≈ 14.6 µM) | 128 µg/mL (≈ 234 µM) | 1 µg/mL (≈ 1.83 µM) | 2 µg/mL (≈ 3.66 µM) | 2 µg/mL (≈ 3.66 µM) | 16 µg/mL (≈ 29.3 µM) | 256 µg/mL (≈ 468 µM) | 8 µg/mL (≈ 14.6 µM) | 
CCCCCCCCCCCC(=O)N[C@@H](CCCNC(=N)N)C(=O)N[C@@H](Cc1c[nH]c2ccccc12)C(=O)N[C@@H](CCCNC(=N)N)C(=O)N[C@@H](Cc1c[nH]c2ccccc12)C(=O)N[C@@H](CCCNC(=N)N)C(=O)N[C@@H](Cc1c[nH]c2ccccc12)C(=O)N[C@@H](CCCCN)C(=O)O (Lauroyl-RWRWRWK-OH) | > 128 µg/mL | > 128 µg/mL | 64 µg/mL (≈ 47.2 µM) |  |  |  |  |  |  |  |  |  |  |  |  |  |  |  |  |  | 
CCCCCCCCCCCCCC(=O)NCCCC[C@H](NC(=O)[C@H](Cc1c[nH]c2ccccc12)NC(=O)[C@H](CCCNC(=N)N)NC(=O)[C@H](Cc1c[nH]c2ccccc12)NC(=O)[C@H](CCCNC(=N)N)NC(=O)[C@H](Cc1c[nH]c2ccccc12)NC(=O)[C@@H](N)CCCNC(=N)N)C(=O)O (H-RWRWRWK(Myristoyl)-OH) | > 128 µg/mL | > 128 µg/mL | 128 µg/mL (≈ 92.5 µM) |  |  |  |  |  |  |  |  |  |  |  |  |  |  |  |  |  | 
